Read-outs that look alike come from different tables or passages of the source.
Columns and labels:
Mushroom tyrosinase [1] = conditions: cited from earlier work
[2] = molecular target: T1, mushroom tyrosinase (A. bisporus) (Agaricus bisporus, UniProt C7FF04); test: End-point colorimetric tyrosinase inhibition assay (broad screening); type: biochemical; conditions: within 20 minutes; 475 and 490 nm; blank with enzyme rises to ~0.100
T1 construct: purchased Sigma-Aldrich and Worthington Biochemical Corp
T1 sequence (C7FF04 1-392): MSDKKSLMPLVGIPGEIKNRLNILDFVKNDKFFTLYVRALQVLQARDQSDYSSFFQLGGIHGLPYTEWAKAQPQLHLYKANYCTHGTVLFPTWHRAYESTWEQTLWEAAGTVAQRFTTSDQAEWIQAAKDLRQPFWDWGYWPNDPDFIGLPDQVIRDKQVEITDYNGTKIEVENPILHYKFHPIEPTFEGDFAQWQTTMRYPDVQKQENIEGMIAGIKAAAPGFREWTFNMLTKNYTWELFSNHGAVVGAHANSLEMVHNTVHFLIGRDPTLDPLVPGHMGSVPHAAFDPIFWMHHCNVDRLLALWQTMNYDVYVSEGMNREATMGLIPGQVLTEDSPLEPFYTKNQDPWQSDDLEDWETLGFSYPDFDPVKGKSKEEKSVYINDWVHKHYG
Description: Four types of assay wells were designated for each screening plate (see Supplementary Figure S2 for visualization), in which the following reaction mixtures were added: A [Blank Control with Enzyme] contains 2 μl of DMSO, 118 μl of prepared 0.067 M sodium phosphate buffer and 40 μl of tyrosinase (100 units/ml) in the same buffer; B [Blank Control without Enzyme] contains 2 μl of DMSO and 158 μl of 0.067 M sodium phosphate buffer; C [Testing Material with Enzyme] contains 2 μl of sample (1 mg/ml in DMSO), 118 μl of 0.067 M sodium phosphate buffer and 40 μl of tyrosinase (100 Units/mL) in the same buffer; D [Testing Material without Enzyme] contains 2 μl of sample (1 mg/ml in DMSO) and 158 μl of 0.067 M sodium phosphate buffer. Samples were tested in triplicate.
The final test sample concentration was 10 μg/ml, while the final DMSO concentrations for both negative controls and samples kept ≤1%. […] Forty-five seconds of shaking was performed by the instrument before the wells were read.
The percentage inhibition of the tyrosinase activity was calculated by the equation: % Inhibition = {[(A − B) − (C − D)]/(A − B)} × 100, where A, B, C and D are all OD values from the corresponding wells at the same time point. It reflects the inhibitory strength of the testing material by comparing to the blank condition where no inhibitor is added.

[3] = molecular target: T1, mushroom tyrosinase (A. bisporus); test: Dynamic dose-dependent tyrosinase inhibition study; type: biochemical
Description: Respectively, the final concentration gradient of the test samples was set to be 200, 150, 75, 25, 5, and 1 μM. For OD measurements, the plate was read in the dynamic mode for 60 min with measurements recorded every minute, using the SpectraMax M3 plate reader at 475 nm and 490 nm. Forty-five seconds of shaking was also performed before first reading to retain method consistency.

mushroom tyrosinase [4] = molecular target: T2, mushroom tyrosinase (Agaricus bisporus, UniProt C7FF04); test: Kinetic analysis of tyrosinase and inhibitors (Lineweaver-Burk); type: biochemical, A. bisporus
T2 construct: purchased Sigma-Aldrich and Worthington Biochemical Corp
T2 sequence (C7FF04 1-392): as above
Description: The Lineweaver–Burk plot was generated using Graphpad Prism 9.2.0. Experiments were performed in triplicate.
A kinetic study was performed to better understand the tyrosinase inhibitory properties of ScyM. For this kinetic mode analysis, varying concentrations of substrate and inhibitor were used in the assays in order to generate Lineweaver–Burk plots. […] The Lineweaver–Burk plot (Figures 6A,B), also known as the double reciprocal plot, is commonly used to determine the mechanism of how an inhibitor is inhibiting an enzyme. […] Two inhibition parameters, the Michaelis–Menten constant (Km) and maximal velocity (Vmax), are also visualized in this plot. […] The apparent Km and Vmax values were calculated as an average of triplicate measurements and are provided with standard deviations (see Table 2).

[5] = system: NCI-H460 human lung carcinoma cell line; test: MTT cytotoxicity assay; type: cell-based; conditions: H460 human lung cancer cells; no significant effect at concentration as high as 254 μM
Description: The cytotoxicity assay was performed using a protocol previously published ([Yu H.-B. et al., 2019]; [Leber et al., 2020]). Briefly, the MTT staining method was used to determine the cytotoxicity of compounds of interest using the NCI-H460 human lung carcinoma cell line purchased from ATCC (Manassas, VA, United States). The cells were grown in flasks and then seeded into wells at 3.33 × 10^4 cells/ml of Roswell Park Memorial Institute (RPMI-1640) medium with standard fetal bovine serum (FBS), leading to 180 μl/well. The cells were then pre-incubated for 24 h at 37°C in 96-well plates before drug was added. Thereafter, with addition of diluted compounds of interest dissolved in DMSO, plates were incubated for an additional 48 h and then stained with MTT (thiazolyl blue tetrazolium bromide 98%; Sigma-Aldrich) for 25 min, after which the optical densities (OD) were recorded at 630 and 570 nm for each well on a SpectraMax M3 plate reader (Molecular Devices, San Jose, CA, United States). Doxorubicin and 1% DMSO in RPMI-1640 without fetal bovine serum were used as positive and negative controls, respectively. Polyethylene glycol (PEG) was used to facilitate dissolution of compounds with limited solubility.

tyrosinase = molecular target: T3, tyrosinase (Agaricus bisporus, UniProt C7FF04); test: Isobologram / interaction index analysis of ScyM and KA; type: biochemical, A. bisporus; conditions: single compounds, determined again for the isobologram; read-out: IC50 (another round of dose-dependent assays)
T3 construct: purchased Sigma-Aldrich and Worthington Biochemical Corp
T3 sequence (C7FF04 1-392): as above
Description: Based on the derived equation, γ=∑i=2ndi/Di , where Di represents the dose of an individual drug to achieve 50% efficacy when acting alone, and di represents the dose of each drug in the compound mixture when the combined drug achieves 50% efficacy. Accordingly, when the interactions between drugs are synergistic, additive, and antagonistic, the corresponding values of γ are <1, = 1, and >1, respectively. Therefore, the smaller the index value, the stronger the synergistic effect.

[6] = Solubility of ScyM in the assay buffer system
[7] = parameters: method as in Malla and Sommer, 2014; Kang et al., 2020; conditions: ref Malla and Sommer, 2014; Kang et al., 2020; cited from earlier work
[8] = mushroom tyrosinase, SD not given, ref Wu et al., 2013
[9] = mushroom tyrosinase, ref Paudel et al., 2019
[10] = mushroom tyrosinase, SD not given, ref Li et al., 2005
[11] = mushroom tyrosinase, SD not given, ref Sheng et al., 2018

In the case of `O=C1Cc2c([nH]c3ccccc23)/C1=C\c1ccc(O)cc1` (hydrate or solvate) [ScyM, scytonemin monomer], the melting point is reported as > 210 °C.
For `CC(=O)OC[C@]12[C@H](OC(C)=O)[C@H](O)C[C@H](C)[C@]1(OC(C)=O)[C@@H](OC(C)=O)[C@@H](C(C)(C)O)C[C@H]2OC(=O)c1ccccc1` [1β,5α,6α,14-Tetraacetoxy-9α-benzoyloxy-7β H-eudesman-2β,11-diol], the IC50 (Mushroom tyrosinase [1]; [8]) is given as 14.8 µM.
For `OCCc1c(Br)c(O)c(O)c(Br)c1Br` [2,3,6-Tribromo-4,5-dihydroxybenzyl methyl alcohol], the IC50 (Mushroom tyrosinase [1]; [9]) is given as 270.5 ± 2.04 µM and the Mechanism (Mushroom tyrosinase [1]; ref Paudel et al., 2019) is given as “Competitive”.
In the case of `O=C(O)c1cccc(-c2ccccc2)c1` [3-Phenylbenzoic acid (3-PBA), 3-Phenylbenzoic acid], the IC50 (Mushroom tyrosinase [1]; mushroom tyrosinase, SD not given, ref Oyama et al., 2016) is listed as 36.3 µM and the Mechanism (Mushroom tyrosinase [1]; ref Oyama et al., 2016) is listed as “Mixed”.
In the case of `CC(=O)O[C@@]12C[C@@H](C(C)(C)O)C[C@@H](OC(=O)c3ccccc3)[C@@]1(CO)[C@H](O)[C@H](O)C[C@@]2(C)OC(C)=O` [4α,5α-Diacetoxy-9α-benzoyloxy-7βH-eudesman-1β,2β,11, 14-tetraol], the IC50 (Mushroom tyrosinase [1]; [8]) is listed as 22.3 µM.
In the case of `CCCCCc1cccc(=O)o1` [6-n-Pentyl-α-pyrone], the IC50 (Mushroom tyrosinase [1]; [10]) is listed as 0.8 µM.
In the case of `COc1ccc(/C=C/C(=O)Oc2cc(OC)ccc2C(C)=O)cc1` [(E)-2-Acetyl-5-methoxyphenyl-3-(4-methoxyphenyl)acrylate], the IC50 (Mushroom tyrosinase [1]; [11]) is listed as 8.3 µM and the Mechanism (Mushroom tyrosinase [1]; ref Sheng et al., 2018) is listed as “Mixed”.
For `Cc1ccc(C(C)C)c(OC(=O)/C=C/c2ccc(O)cc2)c1` [(E)-2-Isopropyl-5-methylphenyl-3-(4-hydroxyphenyl)acrylate], the IC50 (Mushroom tyrosinase [1]; [11]) is listed as 10.6 µM and the Mechanism (Mushroom tyrosinase [1]; ref Sheng et al., 2018) is listed as “Mixed”.
In the case of `O=c1cc(-c2ccccc2)oc2cc(O)c(O)c(O)c12` [Baicalein], the IC50 (Mushroom tyrosinase [1]; mushroom tyrosinase, SD not given, ref Guo et al., 2018) is listed as 110 µM and the Mechanism (Mushroom tyrosinase [1]; ref Guo et al., 2018) is listed as “Mixed”.
In the case of `O=C1C=C2CC3(O)COc4cc(O)ccc4C3=C2C=C1O` (stereo not drawn) [Brazilein], the IC50 (Mushroom tyrosinase [1]; mushroom tyrosinase, ref Hridya et al., 2015) is given as 21200 µM and the Mechanism (Mushroom tyrosinase [1]; ref Hridya et al., 2015) is given as “Mixed”.
In the case of `C=C[C@]1(O)CC(NC=O)=CC1=O` [Myrothenone A], the IC50 (Mushroom tyrosinase [1]; [10]) is listed as 6.6 µM.
In the case of `O=C1Cc2c([nH]c3ccccc23)/C1=C\c1ccc(O)cc1` [ScyM, scytonemin monomer], the “OD reading with tyrosinase enzyme” value [2] is reported as ~ 0.080, the IC50 [3] is reported as 4.9 ± 0.3 µM and the inhibition at 25 µM ([3]; read-out: inhibition by crude ScyM) is reported as ~60%. The inhibition at 10 µM ([3]; read-out: inhibition by purified ScyM) was ~60%, the Inhibition mode (mushroom tyrosinase [4]; Lineweaver-Burk plot, L-Dopa substrate) was “Mixed” and the Mechanism (mushroom tyrosinase [4]; Table 3, this experiment) was “Mixed”. For the same compound, the “Vmax (OD·min^−1)” value (mushroom tyrosinase [4]; apparent Vmax of tyrosinase with inhibitor, L-Dopa substrate, triplicate with SD) was 5.98 ± 0.52 OD·min^−1, the cytotoxicity [5] was “non-cytotoxic” and the IC50 (tyrosinase) was 4.7 µM. The “saturation point in the assay system” value ([6]; 0.067 M sodium phosphate buffer, ≤1% DMSO, precipitate seen at 75, 150 and 200 μM) was “less than 75 μM” and the “dissolution in the assay buffer system” value ([6]; range of 0–10 μM) was “fully dissolves with no precipitate”.
In the case of `COc1ccc(/C=C2/C(=O)Cc3c2[nH]c2ccccc32)cc1` [ScyM-OMe, O-Methyl Scytonemin Monomer], the inhibition at 35 µM ([3]; 35 μM) is reported as ~1%.
In the case of `O=C(O)c1ccc(C(=O)O)cc1` [Terephthalic acid], the IC50 (Mushroom tyrosinase [1]; mushroom tyrosinase, ref Yin et al., 2011) is listed as 26600 µM and the Mechanism (Mushroom tyrosinase [1]; ref Yin et al., 2011) is listed as “Mixed”.
For `CC[C@H](C)[C@@H]1NC(=O)[C@H](Cc2ccc(O)cc2)N(C)C(=O)[C@H]([C@H](C)O)N2C(=O)[C@H](CC[C@H]2O)NC(=O)[C@H](CC(C)C)NC(=O)[C@@H](NC(=O)[C@H](CCC(N)=O)NC(=O)[C@H](CCc2ccc(O)cc2)NC(=O)[C@H](O)CO)[C@@H](C)OC1=O` [oscillapeptin G], the IC50 (Mushroom tyrosinase [1]; tyrosinase, post-conversion, ref Sano and Kaya, 1996) is listed as ~100 µM.
For “Bis-(2,3,6-tribromo-4,5-dihydroxybenzyl methyl ether”, the IC50 (Mushroom tyrosinase [1]; [9]) is given as 111 ± 4.95 µM and the Mechanism (Mushroom tyrosinase [1]; ref Paudel et al., 2019) is given as “Competitive”.
In the case of scytonemin, the “tyrosinase inhibition in dose-dependent assay” value ([3]; all concentrations tested, from 1 up to 200 μM) is given as “almost no inhibition” and the cytotoxicity [7] is given as “non-cytotoxic”.
